Assay [1] relates to mice. Particulars: mouse, in vivo, ip.
The test system of assay [2] is mice. As to conditions: mouse, in vivo, ip. The source holds these as a separate data set.
Assay [3] concerns mice. Description: animal or person. In kind it is in vivo, mouse. As to conditions: mouse, in vivo, ip.
The test system of the next assay is Rats. More on the design: Rat Jump .5 hr (current at which the animal first jumps) / Rat Jump .5 hr, second value printed in parentheses / Rat Jump 2 hr (current at which the animal first jumps): unit not given here. Particulars: in vivo, ip.
For Hot Plate .5 hr (percentage of mice showing analgesia) in this document: test concentration or dose not given here.
For Hot Plate 2 hr (percentage of mice showing analgesia) in this document: test concentration or dose not given here.
For Tail Flick .5 hr (percentage of analgesia response) in this document: test concentration or dose not given here.
For Tail Flick 2 hr (percentage of analgesia response) in this document: test concentration or dose not given here.

For the compound `COc1ccc(Cl)c2c1CCC(CN1CCC(C(N)=O)CC1)=C2`, in the assay with mice [1], the “Hot Plate 2 hr (percentage of mice showing analgesia)” value was 70 and the “Hot Plate .5 hr (percentage of mice showing analgesia)” value is 90. In addition, in the assay on mice [2], the “Tail Flick 2 hr (percentage of analgesia response)” value was 0 and the “Tail Flick .5 hr (percentage of analgesia response)” value amounted to 70. In addition, in the assay with mice [3], the “Tail Pinch 2 hr (percentage of mice showing analgesia)” value was determined as 0 and the “Tail Pinch .5 hr (percentage of mice showing analgesia)” value is reported as 0. Also, in the assay with Rats, the “Rat Jump 2 hr (current at which the animal first jumps)” value (“Rat Jump 2 hr” below) was found to be 0.6 and the “Rat Jump .5 hr (current at which the animal first jumps)” value was found to be 0.6.
Regarding `COc1ccc(Cl)c2c1CCC(CN1CCC(c3ccccc3)CC1)=C2`, in the assay with mice [1], the “Hot Plate 2 hr (percentage of mice showing analgesia)” value stood at 0 and the “Hot Plate .5 hr (percentage of mice showing analgesia)” value was 30. Also, in the assay with mice [2], the “Tail Flick 2 hr (percentage of analgesia response)” value worked out at 0 and the “Tail Flick .5 hr (percentage of analgesia response)” value was determined as 0. Further, in the assay with mice [3], the “Tail Pinch 2 hr (percentage of mice showing analgesia)” value worked out at 0 and the “Tail Pinch .5 hr (percentage of mice showing analgesia)” value turned out to be 0. Besides, in the assay with Rats, the “Rat Jump 2 hr” value amounted to 1.2 and the “Rat Jump .5 hr (current at which the animal first jumps)” value is on record as 1.2.
In the case of `COc1ccc(Cl)c2c1CCC(CN(C)CCN1CCCC1)=C2`, in the assay with mice [1], the “Hot Plate 2 hr (percentage of mice showing analgesia)” value is 0 and the “Hot Plate .5 hr (percentage of mice showing analgesia)” value worked out at 0. Further, in the assay on mice [2], the “Tail Flick 2 hr (percentage of analgesia response)” value is reported as 0 and the “Tail Flick .5 hr (percentage of analgesia response)” value is given as 0. In the assay with mice [3], the “Tail Pinch 2 hr (percentage of mice showing analgesia)” value was found to be 0 and the “Tail Pinch .5 hr (percentage of mice showing analgesia)” value amounted to 0. Besides, in the assay on Rats, the “Rat Jump 2 hr” value is 1.2 and the “Rat Jump .5 hr (current at which the animal first jumps)” value is reported as 1.2.
`COc1ccc(Cl)c2c1CCC(CN(C)C)=C2` [N(CH3)2]: in the assay on mice [1], the “Hot Plate 2 hr (percentage of mice showing analgesia)” value is reported as 0 and the “Hot Plate .5 hr (percentage of mice showing analgesia)” value came to 0. Further, in the assay on mice [2], the “Tail Flick 2 hr (percentage of analgesia response)” value stood at 0 and the “Tail Flick .5 hr (percentage of analgesia response)” value is given as 0. In the assay on mice [3], the “Tail Pinch 2 hr (percentage of mice showing analgesia)” value was found to be 0 and the “Tail Pinch .5 hr (percentage of mice showing analgesia)” value came to 0. Also, in the assay with Rats, the “Rat Jump 2 hr” value worked out at 0.6 and the “Rat Jump .5 hr (current at which the animal first jumps)” value is given as 1.2.
Regarding `COc1ccc(Cl)c2c1CCC(CN1CCCC1)=C2` [pyrrolidino, 1-(2-[3,4-Dihydro-8-chloro-5-methoxynaphthyl]methyl)pyrrolidine], in the assay with mice [1], the “Hot Plate 2 hr (percentage of mice showing analgesia)” value is reported as 0 and the “Hot Plate .5 hr (percentage of mice showing analgesia)” value is on record as 80. Moreover, in the assay with mice [2], the “Tail Flick 2 hr (percentage of analgesia response)” value stood at 0 and the “Tail Flick .5 hr (percentage of analgesia response)” value worked out at 60. Further, in the assay with mice [3], the “Tail Pinch 2 hr (percentage of mice showing analgesia)” value is 0 and the “Tail Pinch .5 hr (percentage of mice showing analgesia)” value came to 20. Besides, in the assay with Rats, the “Rat Jump 2 hr” value is 2.2; the “Rat Jump .5 hr (current at which the animal first jumps)” value was determined as 1.2; the “Rat Jump .5 hr, second value printed in parentheses” value amounted to 2.2.
For `COc1ccc(Cl)c2c1CCC(CN1CC=C(c3ccc(Cl)cc3)CC1)=C2`, in the assay with mice [1], the “Hot Plate 2 hr (percentage of mice showing analgesia)” value worked out at 0 and the “Hot Plate .5 hr (percentage of mice showing analgesia)” value worked out at 0. Also, in the assay on mice [2], the “Tail Flick 2 hr (percentage of analgesia response)” value is recorded as 0 and the “Tail Flick .5 hr (percentage of analgesia response)” value is on record as 0. In the assay with mice [3], the “Tail Pinch 2 hr (percentage of mice showing analgesia)” value is recorded as 0 and the “Tail Pinch .5 hr (percentage of mice showing analgesia)” value was 0. Also, in the assay on Rats, the “Rat Jump 2 hr” value turned out to be 1.2 and the “Rat Jump .5 hr (current at which the animal first jumps)” value is given as 1.2.
Consider `COc1ccc(Cl)c2c1CCC(CN1CCC(C)CC1)=C2`, for which, in the assay on mice [1], the “Hot Plate 2 hr (percentage of mice showing analgesia)” value came out at 0 and the “Hot Plate .5 hr (percentage of mice showing analgesia)” value came out at 10. In the assay with mice [2], the “Tail Flick 2 hr (percentage of analgesia response)” value is reported as 0 and the “Tail Flick .5 hr (percentage of analgesia response)” value came out at 0. Also, in the assay on mice [3], the “Tail Pinch 2 hr (percentage of mice showing analgesia)” value is 0 and the “Tail Pinch .5 hr (percentage of mice showing analgesia)” value is given as 0. Further, in the assay with Rats, the “Rat Jump 2 hr” value stood at 1.2 and the “Rat Jump .5 hr (current at which the animal first jumps)” value turned out to be 1.2.
As for `CCOC1(c2ccccc2)CCN(CC2=Cc3c(Cl)ccc(OC)c3CC2)CC1`, in the assay on mice [1], the “Hot Plate 2 hr (percentage of mice showing analgesia)” value is on record as 0 and the “Hot Plate .5 hr (percentage of mice showing analgesia)” value worked out at 50. Besides, in the assay on mice [2], the “Tail Flick 2 hr (percentage of analgesia response)” value is on record as 0 and the “Tail Flick .5 hr (percentage of analgesia response)” value was found to be 10. Besides, in the assay on mice [3], the “Tail Pinch 2 hr (percentage of mice showing analgesia)” value is given as 20 and the “Tail Pinch .5 hr (percentage of mice showing analgesia)” value is 0. In addition, in the assay with Rats, the “Rat Jump 2 hr” value is on record as 1.2 and the “Rat Jump .5 hr (current at which the animal first jumps)” value is reported as 1.2.
On to `CCC(=O)OC1CCN(CC2=Cc3c(Cl)ccc(OC)c3CC2)CC1`, for which, in the assay with mice [1], the “Hot Plate 2 hr (percentage of mice showing analgesia)” value came out at 0 and the “Hot Plate .5 hr (percentage of mice showing analgesia)” value is on record as 0. Moreover, in the assay on mice [2], the “Tail Flick 2 hr (percentage of analgesia response)” value is on record as 0 and the “Tail Flick .5 hr (percentage of analgesia response)” value is given as 20. Besides, in the assay with mice [3], the “Tail Pinch 2 hr (percentage of mice showing analgesia)” value was 0 and the “Tail Pinch .5 hr (percentage of mice showing analgesia)” value was determined as 0. For the same compound, in the assay on Rats, the “Rat Jump 2 hr” value turned out to be 1.2 and the “Rat Jump .5 hr (current at which the animal first jumps)” value amounted to 1.2.
Consider `CNC(=O)C1CCN(CC2=Cc3c(Cl)ccc(OC)c3CC2)CC1`, for which, in the assay on mice [1], the “Hot Plate 2 hr (percentage of mice showing analgesia)” value was 0 and the “Hot Plate .5 hr (percentage of mice showing analgesia)” value was 60. For the same compound, in the assay with mice [2], the “Tail Flick 2 hr (percentage of analgesia response)” value is given as 0 and the “Tail Flick .5 hr (percentage of analgesia response)” value came out at 40. Moreover, in the assay on mice [3], the “Tail Pinch 2 hr (percentage of mice showing analgesia)” value is on record as 0 and the “Tail Pinch .5 hr (percentage of mice showing analgesia)” value came to 0. In addition, in the assay on Rats, the “Rat Jump 2 hr” value is listed as 1.2 and the “Rat Jump .5 hr (current at which the animal first jumps)” value was determined as 1.2.
On to `COc1ccc(Cl)c2c1CCC(CN1CCN(CCO)CC1)=C2`, for which, in the assay with mice [1], the “Hot Plate 2 hr (percentage of mice showing analgesia)” value turned out to be 20 and the “Hot Plate .5 hr (percentage of mice showing analgesia)” value worked out at 50. For the same compound, in the assay on mice [2], the “Tail Flick 2 hr (percentage of analgesia response)” value is 0 and the “Tail Flick .5 hr (percentage of analgesia response)” value is reported as 10. Moreover, in the assay on mice [3], the “Tail Pinch 2 hr (percentage of mice showing analgesia)” value is recorded as 0 and the “Tail Pinch .5 hr (percentage of mice showing analgesia)” value worked out at 40. Moreover, in the assay on Rats, the “Rat Jump 2 hr” value stood at 1.2 and the “Rat Jump .5 hr (current at which the animal first jumps)” value was 1.2.
For the compound `COc1ccc(Cl)c2c1CCC(CN1CCC(OC(C)=O)(c3ccccc3)CC1)=C2` [drawing 79], in the assay with mice [1], the “Hot Plate 2 hr (percentage of mice showing analgesia)” value is reported as 80 and the “Hot Plate .5 hr (percentage of mice showing analgesia)” value is recorded as 100. Moreover, in the assay with mice [2], the “Tail Flick 2 hr (percentage of analgesia response)” value was 70 and the “Tail Flick .5 hr (percentage of analgesia response)” value is 90. In the assay with mice [3], the “Tail Pinch 2 hr (percentage of mice showing analgesia)” value worked out at 100 and the “Tail Pinch .5 hr (percentage of mice showing analgesia)” value is 100. Also, in the assay on Rats, the “Rat Jump 2 hr” value is more than 2.2 and the “Rat Jump .5 hr (current at which the animal first jumps)” value is more than 2.2.
As for `COc1ccc(Cl)c2c1CCC(CN1CCC(O)(c3ccccc3)CC1)=C2`, in the assay with mice [1], the “Hot Plate 2 hr (percentage of mice showing analgesia)” value is 0 and the “Hot Plate .5 hr (percentage of mice showing analgesia)” value amounted to 50. Further, in the assay on mice [2], the “Tail Flick 2 hr (percentage of analgesia response)” value is listed as 0 and the “Tail Flick .5 hr (percentage of analgesia response)” value was determined as 30. In addition, in the assay with mice [3], the “Tail Pinch 2 hr (percentage of mice showing analgesia)” value is recorded as 0 and the “Tail Pinch .5 hr (percentage of mice showing analgesia)” value turned out to be 0. Moreover, in the assay on Rats, the “Rat Jump 2 hr” value is recorded as 1.2 and the “Rat Jump .5 hr (current at which the animal first jumps)” value was 1.2.
For `COc1ccc(Cl)c2c1CCC(CN1CCN(C)CC1)=C2`, in the assay on mice [1], the “Hot Plate 2 hr (percentage of mice showing analgesia)” value was determined as 0 and the “Hot Plate .5 hr (percentage of mice showing analgesia)” value came out at 60. Besides, in the assay on mice [2], the “Tail Flick 2 hr (percentage of analgesia response)” value amounted to 0 and the “Tail Flick .5 hr (percentage of analgesia response)” value stood at 30. Further, in the assay on mice [3], the “Tail Pinch 2 hr (percentage of mice showing analgesia)” value came to 0 and the “Tail Pinch .5 hr (percentage of mice showing analgesia)” value stood at 80. For the same compound, in the assay with Rats, the “Rat Jump 2 hr” value turned out to be 1.2 and the “Rat Jump .5 hr (current at which the animal first jumps)” value worked out at 1.2.
For `CCOC(=O)N1CCN(CC2=Cc3c(Cl)ccc(OC)c3CC2)CC1`, in the assay on mice [1], the “Hot Plate 2 hr (percentage of mice showing analgesia)” value is reported as 40 and the “Hot Plate .5 hr (percentage of mice showing analgesia)” value turned out to be 70. Moreover, in the assay on mice [2], the “Tail Flick 2 hr (percentage of analgesia response)” value turned out to be 0 and the “Tail Flick .5 hr (percentage of analgesia response)” value came to 40. Moreover, in the assay with mice [3], the “Tail Pinch 2 hr (percentage of mice showing analgesia)” value is given as 0 and the “Tail Pinch .5 hr (percentage of mice showing analgesia)” value was 0. Moreover, in the assay with Rats, the “Rat Jump 2 hr” value is 1.2 and the “Rat Jump .5 hr (current at which the animal first jumps)” value amounted to 1.2.
Consider `COc1ccc(Cl)c2c1CCC(CN1CCC(O)(c3ccc(Cl)cc3)CC1)=C2`, for which, in the assay on mice [1], the “Hot Plate 2 hr (percentage of mice showing analgesia)” value was determined as 0 and the “Hot Plate .5 hr (percentage of mice showing analgesia)” value was 20. For the same compound, in the assay with mice [2], the “Tail Flick 2 hr (percentage of analgesia response)” value worked out at 0 and the “Tail Flick .5 hr (percentage of analgesia response)” value was found to be 0. For the same compound, in the assay on mice [3], the “Tail Pinch 2 hr (percentage of mice showing analgesia)” value is listed as 0 and the “Tail Pinch .5 hr (percentage of mice showing analgesia)” value came to 0. In the assay on Rats, the “Rat Jump 2 hr” value is reported as 1.6 and the “Rat Jump .5 hr (current at which the animal first jumps)” value is 1.2.
Take `COc1ccc(Cl)c2c1CCC(CN1CCN(c3cccc(C(F)(F)F)c3)CC1)=C2`: in the assay with mice [1], the “Hot Plate 2 hr (percentage of mice showing analgesia)” value stood at 0 and the “Hot Plate .5 hr (percentage of mice showing analgesia)” value was found to be 10. In the assay on mice [2], the “Tail Flick 2 hr (percentage of analgesia response)” value is given as 0 and the “Tail Flick .5 hr (percentage of analgesia response)” value came out at 0. Also, in the assay on mice [3], the “Tail Pinch 2 hr (percentage of mice showing analgesia)” value was determined as 0 and the “Tail Pinch .5 hr (percentage of mice showing analgesia)” value is given as 0. Besides, in the assay on Rats, the “Rat Jump 2 hr” value is given as 1.2 and the “Rat Jump .5 hr (current at which the animal first jumps)” value was 1.2.

The values above are taken from patent publication US4022791A (priority 1975, dated 1977).
